“Also recorded” adds a separate entry of the source. Positions of bridges follow the written chain, without caps; N, C: chain ends. Non-standard residues stand in square brackets, D forms with d. Residues, ends and D or L forms follow the SMILES beside them. Trp(6-Br) = N[C@@H](Cc1c[nH]c2cc(Br)ccc12)C(=O)O; Hyp = O=C(O)[C@@H]1C[C@@H](O)CN1

The record followed here is patent US5889147A (University of Utah Research Foundation, priority 1997, dated 1999).

The subject of experiment [1] is mice. Conditions: mouse, in vivo.
For the next experiment, the target named is T1, serotonin 5HT3 receptor (Homo sapiens, UniProt P46098).
T1 sequence (P46098 24-478): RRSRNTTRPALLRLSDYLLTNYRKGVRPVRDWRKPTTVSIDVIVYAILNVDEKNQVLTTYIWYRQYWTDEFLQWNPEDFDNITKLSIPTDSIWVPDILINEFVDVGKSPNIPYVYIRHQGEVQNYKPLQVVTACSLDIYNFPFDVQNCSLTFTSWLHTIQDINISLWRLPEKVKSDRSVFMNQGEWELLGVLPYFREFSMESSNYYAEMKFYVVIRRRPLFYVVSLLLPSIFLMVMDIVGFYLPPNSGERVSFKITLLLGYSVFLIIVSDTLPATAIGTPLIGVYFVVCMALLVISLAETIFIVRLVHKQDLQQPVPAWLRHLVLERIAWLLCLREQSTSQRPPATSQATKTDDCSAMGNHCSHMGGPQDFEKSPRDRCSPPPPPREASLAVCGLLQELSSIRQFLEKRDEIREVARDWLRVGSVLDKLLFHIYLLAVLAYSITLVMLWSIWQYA

A further experiment relates to CF No. 1 mice. To be noted: mouse, in vivo, sc.
The test system of experiment [2] is mice. To be noted: mouse.
Experiment [3] concerns Frings audiogenic seizure susceptible mice. Conditions: mouse, in vivo.

As to `NCC(=O)N[C@H]1CSSC[C@@H](C(N)=O)NC(=O)[C@H](Cc2c[nH]c3cc(Br)ccc23)NC(=O)[C@@H]2CCCN2C(=O)[C@H](CCC(=O)O)NC(=O)[C@@H](Cc2c[nH]c3ccccc23)NC(=O)[C@@H]2C[C@@H](O)CN2C1=O` [bromocontryphan, GCX1 X2 EPX5 C--NH2, X1 is Hyp, X2 is D-Trp and X5 is 6-bromo-L-Trp] (H-GC[Hyp][dW]EP[Trp(6-Br)]C-NH2; disulfide 2-8), in the experiment with mice [1], the “biological activity in mammalian systems, compared with contryphan R and des[Gly1]contryphan R” value is “very similar to the spectrum of activity previously observed for both contryphan R and des[Gly^1 ]contryphan R”.

In the case of “Gly-Cys-Thr-Arg-Thr-Cys-Gly-Gly-Xaa1 -Lys-Cys-Thr-Gly-Thr-Cys-Thr-Cys-Thr-Asn-Ser-Ser-Lys-Cys-Gly-Cys-Arg-Tyr-Asn-Val-His-Pro-Ser-Gly-Xaa2 -Gly-Cys-Gly-Cys-Ala-Cys-Ser, where Xaa1 is Hyp and Xaa2 is 6-bromo-L-tryptophan [sigma conotoxin]”, the receptor targeted entry at serotonin 5HT3 receptor was “targets the serotonin 5HT3 receptor”.

Take “Xaa1 -Ala-Thr-Ile-Asp-Xaa2 -Cys-Xaa2-Xaa2 -Thr-Cys-Asn-Val-Thr-Phe-Lys-Thr-Cys-Cys-Gly-Xaa3-Xaa3-Gly-Asp-Trp-Gln-Cys-Val-Xaa2-Ala-Cys-Pro-Val-OH, where Xaa3 =hydroxyproline, Xaa2 =Gla and Xaa1 =bromotryptophan [Bromosleeper Peptide]”: in the experiment with CF No. 1 mice, the anticonvulsant activity entry is listed as “found to have anticonvulsant activity”. In the experiment on mice [2], the “in vivo effect in very young (<2 weeks old) and older (>3 weeks old) mice” value is recorded as “induced sleep in mice of both age groups”. Also, in the experiment on mice [2] (in vivo), the “Observed Effects in Mice: lethargic/drowsy after (onset time)” value is “≈ 15 min; also recorded: ≈ 19 min; also recorded: ≈ 11 min” and the “dependence of potency on the age of the mice” value was “more potent in 9-day-old mice than in the older mice”. In experiment [3], the anticonvulsant activity result was “seen to have activity in this model”.
